Results published in US6201006A, “Aromatic amidine derivatives useful as selective thrombin inhibitors” (C & C Research Laboratories, priority 1996, dated 2001).
Where “and” joins values, the source holds several entries; their conditions need not be identical. Equal values may be shown once. Read-outs that look alike come from different tables or passages of the source.

What was measured:
[1] = Pharmacokinetic test in rats (intravenous injection and oral administration); assay type: in vivo, S.D. male rats; details: for bioavailability: oral vs intravenous
Method: S.D. male rats weighing 200±20 g which had fasted overnight were subjected to cannulation at their femoral veins and arteries. Compound 88 prepared in Example 62 was dissolved in physiological saline and then administered to the rats both by intravenous injection and oral administration. Blood was taken at prescribed intervals of time and then immediately mixed with methanol. The mixture was centrifuged (15,000 rpm, 5 min., 4° C.) to obtain quantitative amount of the supernatant which was then subjected to HPLC in Diode Array Detector at 254 nm to analyse the concentration of the test compound in the blood.

human thrombin = target: T1, human thrombin (Homo sapiens, UniProt P00734); assay: Inhibitory activity for thrombin (chromogenic substrate hydrolysis, 405 nm); assay type: biochemical
T1 construct: purchased Sigma T-6759
In short: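 Thrombin: human enzyme (5 units/ml stock, 0.1% BSA) acted for 20 min on N-benzoyl-Phe-Val-Arg-p-nitroanilide in 125 mM NaCl, 50 mM Tris-HCl pH 8.0, with compounds dissolved in 50% methanol. Hydrolysis was read at 405 nm. Selectivity index was trypsin IC50 divided by thrombin IC50.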

[2] = tested on: thrombin time (TT) in rat plasma; assay: Thrombin time (TT) in rat plasma after oral administration; assay type: in vivo, SD male rats; details: TT after / TT before administration
Method: SD male rats weighing 220±20 g which had fasted overnight were used as experimental animals. Blood taken from the hearts of the experimental animals just before administration of the test compound and at 30, 60, 120 and 240 minutes after oral administration of the test compound was mixed with 0.108M sodium citrate in the ratio of 9:1. The mixtures thereby obtained were centrifuged at 15,000 rpm for 5 minutes at 4° C. to separate the plasma, which was stored at -20° C. until the TT was measured by means of the method described below.
200 μl of Owren's buffer was added to 50 μl of the plasma and 100 μl of the diluted plasma thereby obtained was injected into the vial of a coagulometer and then incubated for 2 minutes at 37° C. To each vial was added 100 μl of thrombin at a concentration of 20 U/ml, which had prewarmed at 37° C., to measure the time (TT) until clotting occurred. The ratio of the TT in rat plasma after administration of the test compound to the TT in rat plasma before administration of the test compound was calculated.

CCn1c(CC[C@@H]2CCCN2C(=O)[C@H]2CCCN2CC(=O)O)cc2ccc(C(=N)N)cc21 [Compound 88, 2-[(R)-2-[[(S)-2-[2-(6-amidino-1-ethylindol-2-yl)ethyl]pyrrolidinyl]carbonyl]pyrrolidinyl]acetic acid]
Blood concentration, individual rats (Rat-1 to Rat-5) ([1]; i.v. 10 mg/kg, 0.000 h): 0.000 µg/mL
Blood concentration, individual rats (Rat-1 to Rat-5) ([1]; i.v. 10 mg/kg, 0.033 h, 10 mg/kg, 1.98 min): 11.186 µg/mL and 25.999 µg/mL and 23.841 µg/mL and 28.971 µg/mL and 18.505 µg/mL
Blood concentration, individual rats (Rat-1 to Rat-5) ([1]; i.v. 10 mg/kg, 0.083 h, 10 mg/kg, 4.98 min): 11.984 µg/mL and 10.776 µg/mL and 14.222 µg/mL and 11.623 µg/mL
Blood concentration, individual rats (Rat-1 to Rat-5) ([1]; i.v. 10 mg/kg, 0.250 h, 10 mg/kg, 15 min): 2.707 µg/mL and 4.629 µg/mL and 3.531 µg/mL and 5.982 µg/mL and 3.895 µg/mL
Blood concentration, individual rats (Rat-1 to Rat-5) ([1]; i.v. 10 mg/kg, 0.500 h, 10 mg/kg, 30 min): 0.816 µg/mL and 1.963 µg/mL and 1.685 µg/mL and 2.939 µg/mL and 1.516 µg/mL
Blood concentration, individual rats (Rat-1 to Rat-5) ([1]; i.v. 10 mg/kg, 1.000 h, 10 mg/kg, 60 min): 0.784 µg/mL and 0.773 µg/mL and 0.577 µg/mL and 1.204 µg/mL and 0.535 µg/mL
Blood concentration, individual rats (Rat-1 to Rat-5) ([1]; i.v. 10 mg/kg, 2.000 h, 10 mg/kg): 0.000 µg/mL
Blood concentration, individual rats (Rat-1 to Rat-5) ([1]; i.v. 10 mg/kg, 2.000 h, 10 mg/kg, 120 min): 0.204 µg/mL and 0.098 µg/mL and 0.424 µg/mL and 0.162 µg/mL
Blood concentration, individual rats (Rat-1 to Rat-5) ([1]; i.v. 10 mg/kg, 4.000 h, 10 mg/kg): 0.000 µg/mL
Blood concentration, individual rats (Rat-1 to Rat-5) ([1]; i.v. 10 mg/kg, 4.000 h, 10 mg/kg, 240 min): 0.121 µg/mL and 0.055 µg/mL
Blood concentration, individual rats (Rat-1 to Rat-5) ([1]; i.v. 10 mg/kg, 6.000 h, 10 mg/kg): 0.000 µg/mL
Blood concentration, individual rats (Rat-1 to Rat-5) ([1]; i.v. 10 mg/kg, 6.000 h, 10 mg/kg, 360 min): 0.051 µg/mL
Blood concentration, individual rats (Rat-1 to Rat-5) ([1]; i.v. 10 mg/kg, 24.000 h): 0.000 µg/mL
Blood concentration, individual rats (Rat-1 to Rat-5) ([1]; oral 100 mg/kg, 0.000 h): 0.000 µg/mL
Blood concentration, individual rats (Rat-1 to Rat-5) ([1]; oral 100 mg/kg, 0.033 h, 100 mg/kg, 1.98 min): 11.186 µg/mL and 25.999 µg/mL and 23.841 µg/mL and 28.971 µg/mL and 18.505 µg/mL
Blood concentration, individual rats (Rat-1 to Rat-5) ([1]; oral 100 mg/kg, 0.083 h, 100 mg/kg, 4.98 min): 11.984 µg/mL and 10.776 µg/mL and 14.222 µg/mL and 11.623 µg/mL
Blood concentration, individual rats (Rat-1 to Rat-5) ([1]; oral 100 mg/kg, 0.250 h, 100 mg/kg, 15 min): 2.707 µg/mL and 4.629 µg/mL and 3.531 µg/mL and 5.982 µg/mL and 3.895 µg/mL
Blood concentration, individual rats (Rat-1 to Rat-5) ([1]; oral 100 mg/kg, 0.500 h, 100 mg/kg, 30 min): 0.816 µg/mL and 1.963 µg/mL and 1.685 µg/mL and 2.939 µg/mL and 1.516 µg/mL
Blood concentration, individual rats (Rat-1 to Rat-5) ([1]; oral 100 mg/kg, 1.000 h, 100 mg/kg, 60 min): 0.784 µg/mL and 0.773 µg/mL and 0.577 µg/mL and 1.204 µg/mL and 0.535 µg/mL
Blood concentration, individual rats (Rat-1 to Rat-5) ([1]; oral 100 mg/kg, 2.000 h, 100 mg/kg): 0.000 µg/mL
Blood concentration, individual rats (Rat-1 to Rat-5) ([1]; oral 100 mg/kg, 2.000 h, 100 mg/kg, 120 min): 0.204 µg/mL and 0.098 µg/mL and 0.424 µg/mL and 0.162 µg/mL
Blood concentration, individual rats (Rat-1 to Rat-5) ([1]; oral 100 mg/kg, 4.000 h, 100 mg/kg): 0.000 µg/mL
Blood concentration, individual rats (Rat-1 to Rat-5) ([1]; oral 100 mg/kg, 4.000 h, 100 mg/kg, 240 min): 0.121 µg/mL and 0.055 µg/mL
Blood concentration, individual rats (Rat-1 to Rat-5) ([1]; oral 100 mg/kg, 6.000 h, 100 mg/kg): 0.000 µg/mL
Blood concentration, individual rats (Rat-1 to Rat-5) ([1]; oral 100 mg/kg, 6.000 h, 100 mg/kg, 360 min): 0.051 µg/mL
Blood concentration, individual rats (Rat-1 to Rat-5) ([1]; oral 100 mg/kg, 24.000 h): 0.000 µg/mL
concentration at 0.083 h ([1]; rat, blood, iv, 10 mg/kg, i.v. 10 mg/kg, 0.083 h, read-out: Blood concentration, individual rats (Rat-1 to Rat-5)): 8.79 µg/mL
concentration at 6 h ([1]; rat, blood, iv, 10 mg/kg, i.v. 10 mg/kg, 6.000 h, read-out: Blood concentration, individual rats (Rat-1 to Rat-5)): 0.09 µg/mL
concentration at 0.033 h ([1]; rat, blood, iv, 10 mg/kg, rats, i.v. 10 mg/kg, 0.033 h): 21.7 µg/mL
concentration at 0.083 h ([1]; rat, blood, iv, 10 mg/kg, rats, i.v. 10 mg/kg, 0.083 h, read-out: Blood concentration, Mean): 11.5 µg/mL
concentration at 0.25 h ([1]; rat, blood, iv, 10 mg/kg, rats, i.v. 10 mg/kg, 0.250 h): 4.15 µg/mL
concentration at 0.5 h ([1]; rat, blood, iv, 10 mg/kg, rats, i.v. 10 mg/kg, 0.500 h): 1.78 µg/mL
concentration at 1 h ([1]; rat, blood, iv, 10 mg/kg, rats, i.v. 10 mg/kg, 1.000 h): 0.775 µg/mL
concentration at 2 h ([1]; rat, blood, iv, 10 mg/kg, rats, i.v. 10 mg/kg, 2.000 h): 0.178 µg/mL
concentration at 4 h ([1]; rat, blood, iv, 10 mg/kg, rats, i.v. 10 mg/kg, 4.000 h): 0.035 µg/mL
concentration at 6 h ([1]; rat, blood, iv, 10 mg/kg, rats, i.v. 10 mg/kg, 6.000 h, read-out: Blood concentration, Mean): 0.028 µg/mL
concentration at 0.083 h ([1]; rat, blood, po, 100 mg/kg, oral 100 mg/kg, 0.083 h, read-out: Blood concentration, individual rats (Rat-1 to Rat-5)): 8.79 µg/mL
concentration at 6 h ([1]; rat, blood, po, 100 mg/kg, oral 100 mg/kg, 6.000 h, read-out: Blood concentration, individual rats (Rat-1 to Rat-5)): 0.09 µg/mL
concentration at 0.033 h ([1]; rat, blood, po, 100 mg/kg, rats, oral 100 mg/kg, 0.033 h): 21.7 µg/mL
concentration at 0.083 h ([1]; rat, blood, po, 100 mg/kg, rats, oral 100 mg/kg, 0.083 h, read-out: Blood concentration, Mean): 11.5 µg/mL
concentration at 0.25 h ([1]; rat, blood, po, 100 mg/kg, rats, oral 100 mg/kg, 0.250 h): 4.15 µg/mL
concentration at 0.5 h ([1]; rat, blood, po, 100 mg/kg, rats, oral 100 mg/kg, 0.500 h): 1.78 µg/mL
concentration at 1 h ([1]; rat, blood, po, 100 mg/kg, rats, oral 100 mg/kg, 1.000 h): 0.775 µg/mL
concentration at 2 h ([1]; rat, blood, po, 100 mg/kg, rats, oral 100 mg/kg, 2.000 h): 0.178 µg/mL
concentration at 4 h ([1]; rat, blood, po, 100 mg/kg, rats, oral 100 mg/kg, 4.000 h): 0.035 µg/mL
concentration at 6 h ([1]; rat, blood, po, 100 mg/kg, rats, oral 100 mg/kg, 6.000 h, read-out: Blood concentration, Mean): 0.028 µg/mL
bioavailability ([1]; rat, blood, po, rats, read-out: Bioavailability): 32.6%
half-life ([1]; rat, blood, rats, mean ± error, read-out: Elimination Half-life (converted)): 1.07 ± 0.27 h
half-life ([1]; rat, blood, rats, read-out: elimination half-time): 1.07 h
Blood concentration, Mean ([1]; rats, i.v. 10 mg/kg, 0.000 h): 0.000 µg/mL
Blood concentration, Mean ([1]; rats, i.v. 10 mg/kg, 24.000 h): 0.000 µg/mL
distribution and disappearance after intravenous injection ([1]; rats, intravenous injection): rapidly distributed in the body and slowly disappeared
Blood concentration, Mean ([1]; rats, oral 100 mg/kg, 0.000 h): 0.000 µg/mL
Blood concentration, Mean ([1]; rats, oral 100 mg/kg, 24.000 h): 0.000 µg/mL
bioavailability ([1]; rats): 32.62 ± 7.69%
Selectivity (trypsin/thrombin) (human thrombin; IC50 for trypsin divided by IC50 for thrombin): 8.1
IC50 (human thrombin; human thrombin, 20 min, pH 8.0, N-benzoyl-Phe-Val-Arg-p-nitroanilide): 0.0159 µM
Plasma TT ratio after administration to rat ([2]; 30 mg/kg oral): 2.62
Plasma TT ratio after administration to rat ([2]; 50 mg/kg oral): 7.83
